# Laboratory results: PMC2949700, “Identification of the full set of Listeria monocytogenes penicillin-binding proteins and characterization of PBPD2 (Lmo2812)” (BMC Microbiology, 2010)
# Marks after values point to notes of the source that are not given here.
# Tests used:
# PBPA1 (PBP1) [1] = target: T1, PBPA1 (PBP1) (Listeria monocytogenes, UniProt Q8Y610); assay: Fluorescent antibiotic binding assay, whole cells; details: read-out: Boc-FL Kd50, 30 min at 37°C, estimated from band fluorescence as a function of Boc-FL concentration
# Protocol: (§1) PBPs form a covalent complex with β-lactam antibiotics. When fluorescent β-lactams are employed, these proteins can be visualized immediately following SDS-PAGE [17]. Total protein from whole cells or a cell wall extract of L. monocytogenes EGD were incubated with different concentrations of Boc-FL, Bocillin-650 (Boc-650) or Ampicillin-Alexa430 (Amp-430) for 30 min at 37°C. The highest affinity binding was obtained with Boc-FL and bands identified using this compound in the whole cell assay are shown in Figure 1. PBPs A1, B2, B1, A2, B3, D1, C1 and C2 were also identified with Boc-650 and Amp-430 (data not shown). Two types of non-specific band were also observed (lane 1, 0 μM Boc-FL) and they represent the natural intrinsic fluorescence of other proteins in the cell extract. However, the bands that are absent in lane 8 (ampicillin 100 μg/ml, 50 μM Boc-FL) compared with lane 7 (50 μM Boc-FL) represent specific PBPs. Those bands that completely disappeared (PBPB1, PBPD1), partially disappeared (PBPA1, PBPB2, PBPA2 and PBPB3) or remained present (PBPC1 and PBPC2) reflect total, partial and no binding of ampicillin, respectively. The results of an experiment examining saturation with 50 μM Boc-FL, the binding capacity of each PBP for Boc-FL and the affinity of the PBPs for ampicillin (Amp) are presented in Table 2. These assays involved incubation of whole cell with ampicillin followed by a similar incubation with Boc-FL. Therefore, only those PBPs with no or low affinity for ampicillin would be able to bind Boc-FL during the second incubation. The deacylation rate for the PBPs is actually extremely low, which permitted their detection in the gel for several hours after binding.
# (§2) Figure 1 Complete set of PBPs identified with Boc-FL in whole cells of L. monocytogenes. Samples of whole cells (100 μg of total protein) were labeled with Boc-FL at concentrations of 0 (1), 0.5 (2), 1 (3), 2.5 (4), 5 (5), 10 (6), 50 μM (7) and 50 μM plus 100 μg/ml ampicillin (8). Labeled bands were detected directly on the gel, quantified, and their molecular mass estimated. The affinity of each band for Boc-FL (ID50) was estimated from their fluorescence as a function of the concentration of Boc-FL. The name of the PBP corresponding to each band is indicated on the right, while the positions of molecular weight markers (bars) and unspecific bands (arrowheads) are shown on the left.
# (§3) Total whole cell proteins or purified recombinant protein resuspended in 50 mM NaPi buffer, pH 7.0 were labeled by incubation at 37°C for 30 min with different concentrations of Boc-FL (Molecular Probes), Boc-650 (Molecular Probes) or Amp-430 (prepared in the laboratory by coupling ampicillin to Alexa-430), and then separated on a 10% acrylamide, 3.3% cross-linkage SDS-PAGE gel. To avoid degradation of the fluorescent β-lactam antibiotics by β-lactamases, samples were incubated at 37°C with clavulanic acid at a final concentration of 10 μg/ml or EDTA at a final concentration of 10 mM for 30 min before labeling, where appropriate. Competition experiments were carried out by preincubation of the samples with ampicillin (100 μg/ml) for 30 min at 37°C, before adding the fluorescent antibiotic. […] PBPs were visualized directly on the polyacryloamide gel by fluorescence using a Typhoon 9410 imager (Amersham Biosciences) with excitation wavelengths of 588, 633 or 457 nm and emission filters 520BP40, 670BP30 or 555BP20 for Boc-FL, Boc-650 and Amp-430, respectively.
# PBPA2 (PBP4) [2] = target: T2, PBPA2 (PBP4) (Listeria monocytogenes, UniProt Q8Y547); assay: Fluorescent antibiotic binding assay, whole cells; details: read-out: Boc-FL Kd50, 30 min at 37°C, estimated from band fluorescence as a function of Boc-FL concentration
# Protocol: as §1, §2, §3
# PBPB2 (PBP2) [3] = target: T3, PBPB2 (PBP2) (Listeria monocytogenes, UniProt Q8Y5L8); assay: Fluorescent antibiotic binding assay, whole cells; details: read-out: Boc-FL Kd50, 30 min at 37°C, estimated from band fluorescence as a function of Boc-FL concentration
# Protocol: as §1, §2, §3
# PBPD1 (PBP5) [4] = target: T4, PBPD1 (PBP5) (Listeria monocytogenes, UniProt Q8Y3S7); assay: Fluorescent antibiotic binding assay, whole cells; details: read-out: Boc-FL Kd50, 30 min at 37°C, estimated from band fluorescence as a function of Boc-FL concentration
# Protocol: as §1, §2, §3
# PBPB1 (PBP3) [5] = target: T5, PBPB1 (PBP3) (Listeria monocytogenes, UniProt Q8Y763); assay: Fluorescent antibiotic binding assay, whole cells; details: read-out: Boc-FL Kd50, 30 min at 37°C, estimated from band fluorescence as a function of Boc-FL concentration
# Protocol: as §1, §2, §3
# [6] = target: T6, purified recombinant Lmo2812 (PBPD2) (Listeria monocytogenes, UniProt Q8Y3M3); assay: Fluorescent antibiotic binding assay, purified recombinant protein
# Protocol: The purified protein was incubated with different concentrations of Boc-FL (0.25, 0.5, 2.5, 5 and 10 μM). […] Lmo2812 was the major band on gels, with a slower migrating minor band thought to represent a dimeric form (Figure 2).
# Figure 2 Purified recombinant L. monocytogenes Lmo2812 (PBPD2) identified with Boc-FL. Samples of purified recombinant Lmo2812 (10 μg) were labeled with Boc-FL at concentrations of 0 (1), 0.25 (2), 0.5 (3), 2.5 (4), 5 (5) and 10 μM (6). Labeled bands were detected directly on the gel, quantified and their molecular mass estimated. The affinity of the bands for Boc-FL (Kd50) was estimated from their fluorescence as a function of the concentration of Boc-FL. The names of the bands are indicated on the right, and the positions of the molecular weight markers are shown on the left.
# The β-lactam binding capacity of Lmo2812 was evaluated with three different fluorescent antibiotics: Boc-FL, Boc-650 and Amp-430.
# Total whole cell proteins or purified recombinant protein resuspended in 50 mM NaPi buffer, pH 7.0 were labeled by incubation at 37°C for 30 min with different concentrations of Boc-FL (Molecular Probes), Boc-650 (Molecular Probes) or Amp-430 (prepared in the laboratory by coupling ampicillin to Alexa-430), and then separated on a 10% acrylamide, 3.3% cross-linkage SDS-PAGE gel. To avoid degradation of the fluorescent β-lactam antibiotics by β-lactamases, samples were incubated at 37°C with clavulanic acid at a final concentration of 10 μg/ml or EDTA at a final concentration of 10 mM for 30 min before labeling, where appropriate. Competition experiments were carried out by preincubation of the samples with ampicillin (100 μg/ml) for 30 min at 37°C, before adding the fluorescent antibiotic. The samples were then further incubated for 30 min at 37°C. PBPs were visualized directly on the polyacryloamide gel by fluorescence using a Typhoon 9410 imager (Amersham Biosciences) with excitation wavelengths of 588, 633 or 457 nm and emission filters 520BP40, 670BP30 or 555BP20 for Boc-FL, Boc-650 and Amp-430, respectively. […]
# [7] = target: T6, purified recombinant Lmo2812 (PBPD2); assay: Competition binding assay (ampicillin preincubation, then Boc-FL), purified recombinant protein; details: purified recombinant Lmo2812 preincubated with 100 μg/ml ampicillin
# Protocol: (§4) Total whole cell proteins or purified recombinant protein resuspended in 50 mM NaPi buffer, pH 7.0 were labeled by incubation at 37°C for 30 min with different concentrations of Boc-FL (Molecular Probes), Boc-650 (Molecular Probes) or Amp-430 (prepared in the laboratory by coupling ampicillin to Alexa-430), and then separated on a 10% acrylamide, 3.3% cross-linkage SDS-PAGE gel. To avoid degradation of the fluorescent β-lactam antibiotics by β-lactamases, samples were incubated at 37°C with clavulanic acid at a final concentration of 10 μg/ml or EDTA at a final concentration of 10 mM for 30 min before labeling, where appropriate. Competition experiments were carried out by preincubation of the samples with ampicillin (100 μg/ml) for 30 min at 37°C, before adding the fluorescent antibiotic. The samples were then further incubated for 30 min at 37°C. PBPs were visualized directly on the polyacryloamide gel by fluorescence using a Typhoon 9410 imager (Amersham Biosciences) with excitation wavelengths of 588, 633 or 457 nm and emission filters 520BP40, 670BP30 or 555BP20 for Boc-FL, Boc-650 and Amp-430, respectively.
# PBPC2 = PBPC2 (Listeria monocytogenes, UniProt Q8Y5Y7); assay: Competition binding assay (ampicillin preincubation, then Boc-FL), whole cells
# Protocol: as §1, §2, §4
# PBPA1 (PBP1) [8] = target: T1, PBPA1 (PBP1); assay: as above
# Protocol: as §1, §2, §4
# PBPA2 (PBP4) [9] = target: T2, PBPA2 (PBP4); assay: as above
# Protocol: as §1, §2, §4
# PBPB3 = PBPB3 (Listeria monocytogenes, UniProt Q8Y9T2); assay: as above
# Protocol: as §1, §2, §4
# PBPB2 (PBP2) [10] = target: T3, PBPB2 (PBP2); assay: as above
# Protocol: as §1, §2, §4
# PBPD1 (PBP5) [11] = target: T4, PBPD1 (PBP5); assay: as above
# Protocol: as §1, §2, §4
# PBPC1 = PBPC1 (Listeria monocytogenes, UniProt Q8Y9I8); assay: as above
# Protocol: as §1, §2, §4
# PBPB1 (PBP3) [12] = target: T5, PBPB1 (PBP3); assay: as above
# Protocol: as §1, §2, §4
# [13] = test system: L. monocytogenes AD07 (Δlmo2812 Δlmo2754); assay: Microdilution MIC test; type: cell-based, Listeria monocytogenes; details: Listeria monocytogenes
# Protocol: (§5) To determine the effect of these mutations on cell morphology, the strains EGD, KD2812 and DA07 were analyzed by scanning electron microscopy (SEM). […] At 30°C the average cell length compared to strain EGD was increased by 38.5% in strain KD2812 and by 44.8% in the double mutant strain. The respective values at 37°C were 37.5% and 43%. […] The variant cells were characteristically curved with a bend at either one or both ends and subterminal constrictions. The number of cells with altered morphology was increased as the growth temperature was raised (Figure 3; b, e, h). Cell bending was more pronounced in the population of AD07 mutant cells (Figure 3; c, f, i). […] Similar results were found for a mutant of L. monocytogenes lacking PBP5 (PBPD1) examined in a previous study.
# (§6) Microdilution tests were performed using cation-adjusted Mueller-Hinton broth (CAMHB) supplemented with 5% lysed horse blood containing two-fold dilutions of the antimicrobial agents. These mixtures were dispensed in 100 μl aliquots into plastic 96-well plates. To prepare inocula, a single colony of each strain from a TSBYE plate was transferred into 10 ml of the same medium and incubated for 24 h at 37°C. These cultures were serially diluted in CAMHB to a concentration of 10^5 cfu/ml and 100 μl aliquots were added to the microdilution plates. The plates were incubated for 18-20 h at 37°C before the reading of the MIC endpoints. The MIC was the lowest antibiotic concentration at which visible growth was inhibited.
# L. monocytogenes EGD = assay: Microdilution MIC test; type: cell-based, Listeria monocytogenes; details: Listeria monocytogenes
# Protocol: as §5, §6
# [14] = test system: L. monocytogenes KD2812 (Δlmo2812); assay: Microdilution MIC test; type: cell-based, Listeria monocytogenes; details: Listeria monocytogenes
# Protocol: as §5, §6
# [15] = ampicillin 100 μg/ml, 50 μM Boc-FL, Figure 1 lane 8 vs lane 7
# [16] = preincubated with 100 μg/ml ampicillin, then 50 μM Boc-FL
# T4 sequence (Q8Y3S7 entry or part of it): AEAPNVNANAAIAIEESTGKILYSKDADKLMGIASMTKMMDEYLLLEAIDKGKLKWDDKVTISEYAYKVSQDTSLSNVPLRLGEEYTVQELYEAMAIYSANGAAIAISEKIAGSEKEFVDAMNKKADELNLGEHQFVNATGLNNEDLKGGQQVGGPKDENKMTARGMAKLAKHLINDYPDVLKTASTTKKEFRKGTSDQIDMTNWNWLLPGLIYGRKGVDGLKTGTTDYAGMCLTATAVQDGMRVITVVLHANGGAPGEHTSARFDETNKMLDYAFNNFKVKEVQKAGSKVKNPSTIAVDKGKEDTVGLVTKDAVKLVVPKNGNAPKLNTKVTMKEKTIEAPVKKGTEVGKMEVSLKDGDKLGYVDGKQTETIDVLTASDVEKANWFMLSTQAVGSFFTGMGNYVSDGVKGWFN
# T1 sequence (Q8Y610 entry or part of it): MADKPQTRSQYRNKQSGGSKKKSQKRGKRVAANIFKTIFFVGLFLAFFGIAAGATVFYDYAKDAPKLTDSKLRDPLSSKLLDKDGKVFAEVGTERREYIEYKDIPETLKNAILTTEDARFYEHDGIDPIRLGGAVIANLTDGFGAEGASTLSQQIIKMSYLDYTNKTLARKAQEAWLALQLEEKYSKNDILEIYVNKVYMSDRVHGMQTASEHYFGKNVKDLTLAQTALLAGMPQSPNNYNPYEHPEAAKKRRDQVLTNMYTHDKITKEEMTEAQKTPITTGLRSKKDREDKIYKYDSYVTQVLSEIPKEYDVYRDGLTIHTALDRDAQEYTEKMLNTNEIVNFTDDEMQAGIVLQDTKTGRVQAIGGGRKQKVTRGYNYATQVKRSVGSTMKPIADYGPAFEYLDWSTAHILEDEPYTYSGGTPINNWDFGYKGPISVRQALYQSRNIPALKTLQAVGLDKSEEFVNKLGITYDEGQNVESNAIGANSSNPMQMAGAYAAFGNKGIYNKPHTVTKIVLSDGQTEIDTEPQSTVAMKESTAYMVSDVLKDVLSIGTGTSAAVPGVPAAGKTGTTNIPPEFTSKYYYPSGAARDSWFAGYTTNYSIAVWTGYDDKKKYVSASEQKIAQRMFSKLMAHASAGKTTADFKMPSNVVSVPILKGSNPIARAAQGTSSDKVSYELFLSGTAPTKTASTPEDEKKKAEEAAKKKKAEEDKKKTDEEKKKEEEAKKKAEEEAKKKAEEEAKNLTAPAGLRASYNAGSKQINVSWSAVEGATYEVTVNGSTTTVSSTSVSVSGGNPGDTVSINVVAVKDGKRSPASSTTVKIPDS
# T3 sequence (Q8Y5L8 entry or part of it): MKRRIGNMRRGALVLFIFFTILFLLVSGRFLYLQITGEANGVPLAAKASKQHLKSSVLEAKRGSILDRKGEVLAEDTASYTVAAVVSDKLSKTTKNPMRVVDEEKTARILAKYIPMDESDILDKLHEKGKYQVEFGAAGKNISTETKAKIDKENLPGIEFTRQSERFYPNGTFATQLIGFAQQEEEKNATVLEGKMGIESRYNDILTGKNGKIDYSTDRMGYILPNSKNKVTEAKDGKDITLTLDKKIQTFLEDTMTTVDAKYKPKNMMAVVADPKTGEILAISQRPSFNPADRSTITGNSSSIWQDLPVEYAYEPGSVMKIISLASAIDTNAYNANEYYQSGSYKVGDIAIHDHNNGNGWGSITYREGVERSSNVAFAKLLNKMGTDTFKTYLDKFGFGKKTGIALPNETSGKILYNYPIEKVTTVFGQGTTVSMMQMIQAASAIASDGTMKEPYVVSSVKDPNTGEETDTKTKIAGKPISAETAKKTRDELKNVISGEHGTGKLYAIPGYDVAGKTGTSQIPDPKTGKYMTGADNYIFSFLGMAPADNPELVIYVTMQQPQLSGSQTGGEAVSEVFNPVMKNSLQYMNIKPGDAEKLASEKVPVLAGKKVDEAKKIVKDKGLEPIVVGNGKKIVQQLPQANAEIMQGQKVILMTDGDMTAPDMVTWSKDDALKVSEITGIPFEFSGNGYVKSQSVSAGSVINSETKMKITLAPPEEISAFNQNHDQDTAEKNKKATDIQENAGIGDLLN
# T5 sequence (Q8Y763 entry or part of it): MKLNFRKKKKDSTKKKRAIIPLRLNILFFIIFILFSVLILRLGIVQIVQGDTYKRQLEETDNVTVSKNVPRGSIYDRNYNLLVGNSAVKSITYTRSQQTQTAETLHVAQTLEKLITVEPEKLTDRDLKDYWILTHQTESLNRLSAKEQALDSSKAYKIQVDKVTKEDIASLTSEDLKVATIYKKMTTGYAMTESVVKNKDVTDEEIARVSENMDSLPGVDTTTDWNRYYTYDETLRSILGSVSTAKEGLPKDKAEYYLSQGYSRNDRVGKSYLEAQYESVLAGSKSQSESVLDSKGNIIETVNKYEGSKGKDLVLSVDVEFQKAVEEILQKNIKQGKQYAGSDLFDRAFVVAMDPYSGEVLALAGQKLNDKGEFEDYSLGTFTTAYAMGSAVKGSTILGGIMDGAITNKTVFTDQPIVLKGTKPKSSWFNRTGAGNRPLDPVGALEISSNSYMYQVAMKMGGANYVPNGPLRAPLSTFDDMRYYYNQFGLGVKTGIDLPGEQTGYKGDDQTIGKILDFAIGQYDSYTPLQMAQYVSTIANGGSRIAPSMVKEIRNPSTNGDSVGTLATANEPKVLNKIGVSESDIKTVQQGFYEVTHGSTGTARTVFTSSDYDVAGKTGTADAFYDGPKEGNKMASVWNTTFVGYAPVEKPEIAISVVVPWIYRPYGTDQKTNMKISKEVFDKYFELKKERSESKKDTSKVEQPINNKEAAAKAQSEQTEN
# T2 sequence (Q8Y547 entry or part of it): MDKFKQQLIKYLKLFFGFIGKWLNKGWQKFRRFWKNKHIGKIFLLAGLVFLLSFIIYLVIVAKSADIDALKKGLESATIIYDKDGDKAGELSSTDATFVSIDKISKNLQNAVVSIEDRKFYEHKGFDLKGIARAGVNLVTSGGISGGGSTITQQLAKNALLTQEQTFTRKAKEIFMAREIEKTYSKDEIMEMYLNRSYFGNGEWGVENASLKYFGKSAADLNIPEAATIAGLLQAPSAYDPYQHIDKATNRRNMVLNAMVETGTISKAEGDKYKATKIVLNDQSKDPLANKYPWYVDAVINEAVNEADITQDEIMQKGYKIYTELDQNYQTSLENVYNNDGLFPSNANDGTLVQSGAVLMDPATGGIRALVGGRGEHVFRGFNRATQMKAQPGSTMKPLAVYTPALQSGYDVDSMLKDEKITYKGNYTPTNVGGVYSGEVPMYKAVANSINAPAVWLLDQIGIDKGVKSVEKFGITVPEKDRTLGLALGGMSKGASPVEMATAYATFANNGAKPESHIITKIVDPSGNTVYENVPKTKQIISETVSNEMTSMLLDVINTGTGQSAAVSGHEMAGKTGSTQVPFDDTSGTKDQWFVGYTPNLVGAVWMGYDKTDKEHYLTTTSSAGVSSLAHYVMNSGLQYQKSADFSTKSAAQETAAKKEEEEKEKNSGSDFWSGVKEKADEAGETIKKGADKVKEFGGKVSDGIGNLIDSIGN
# PBPC2, sequence (Q8Y5Y7 entry or part of it): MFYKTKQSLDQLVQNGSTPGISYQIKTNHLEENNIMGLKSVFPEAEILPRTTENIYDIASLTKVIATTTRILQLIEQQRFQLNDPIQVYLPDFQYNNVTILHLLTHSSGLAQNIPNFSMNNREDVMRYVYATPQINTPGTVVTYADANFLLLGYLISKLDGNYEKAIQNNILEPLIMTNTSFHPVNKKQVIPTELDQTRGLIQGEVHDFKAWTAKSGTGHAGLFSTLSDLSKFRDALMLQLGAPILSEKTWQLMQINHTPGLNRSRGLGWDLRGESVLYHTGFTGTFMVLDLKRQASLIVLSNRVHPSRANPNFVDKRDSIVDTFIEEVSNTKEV
# PBPC1, sequence (Q8Y9I8 entry or part of it): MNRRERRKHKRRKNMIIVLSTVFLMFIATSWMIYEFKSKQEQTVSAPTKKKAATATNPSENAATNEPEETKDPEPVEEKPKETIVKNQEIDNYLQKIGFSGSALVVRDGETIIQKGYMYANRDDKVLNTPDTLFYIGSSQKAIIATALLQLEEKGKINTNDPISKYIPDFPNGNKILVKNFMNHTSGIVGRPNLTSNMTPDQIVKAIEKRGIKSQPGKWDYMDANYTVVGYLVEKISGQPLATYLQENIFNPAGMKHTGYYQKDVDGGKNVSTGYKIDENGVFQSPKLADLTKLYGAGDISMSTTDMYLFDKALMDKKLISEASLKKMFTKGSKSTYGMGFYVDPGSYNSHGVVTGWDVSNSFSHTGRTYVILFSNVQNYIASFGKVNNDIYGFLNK
# T6 sequence (Q8Y3M3 entry or part of it): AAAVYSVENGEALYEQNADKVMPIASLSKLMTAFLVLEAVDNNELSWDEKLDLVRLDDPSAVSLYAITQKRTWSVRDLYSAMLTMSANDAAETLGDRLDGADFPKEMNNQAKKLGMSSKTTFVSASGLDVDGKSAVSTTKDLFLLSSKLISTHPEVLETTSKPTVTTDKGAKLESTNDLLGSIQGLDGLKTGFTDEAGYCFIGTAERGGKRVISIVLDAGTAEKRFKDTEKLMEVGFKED
smiles,measurement,setting,value
"Cc1cc(C)n2c1C=C1C=CC(CCC(=O)Nc3ccc(OCC(=O)N[C@@H]4C(=O)N5[C@@H]4SC(C)(C)[C@@H]5C(=O)O)cc3)=[N+]1[B-]2(F)F [Boc-FL, Bocillin-FL]",Kd,PBPA1 (PBP1) [1],> 10000 nM
same,Kd,PBPA2 (PBP4) [2],250 nM
same,Kd,PBPB2 (PBP2) [3],250 nM
same,Kd,PBPD1 (PBP5) [4],5000 nM
same,Kd,PBPB1 (PBP3) [5],250 nM
same,Kd,[6],2500 nM
CC1(C)S[C@@H]2[C@H](NC(=O)[C@H](N)c3ccccc3)C(=O)N2[C@H]1C(=O)O [ampicillin],percentage of Boc-FL binding capacity remaining,[7],0^b %
same,binding of ampicillin (disappearance of Boc-FL band),PBPC2; [15],no binding
same,percentage of Boc-FL binding capacity remaining,PBPC2; [16],100%
same,binding of ampicillin (disappearance of Boc-FL band),PBPA1 (PBP1) [8]; [15],partial
same,percentage of Boc-FL binding capacity remaining,PBPA1 (PBP1) [8]; [16],95%
same,binding of ampicillin (disappearance of Boc-FL band),PBPA2 (PBP4) [9]; [15],partial
same,percentage of Boc-FL binding capacity remaining,PBPA2 (PBP4) [9]; [16],90%
same,binding of ampicillin (disappearance of Boc-FL band),PBPB3; [15],partial
same,percentage of Boc-FL binding capacity remaining,PBPB3; [16],95%
same,binding of ampicillin (disappearance of Boc-FL band),PBPB2 (PBP2) [10]; [15],partial
same,percentage of Boc-FL binding capacity remaining,PBPB2 (PBP2) [10]; [16],90%
same,inhibition of Boc-FL binding,PBPD1 (PBP5) [11]; Amp at 100 μg/ml,completely inhibited
same,binding of ampicillin (disappearance of Boc-FL band),PBPD1 (PBP5) [11]; [15],total
same,percentage of Boc-FL binding capacity remaining,PBPD1 (PBP5) [11]; [16],0%
same,binding of ampicillin (disappearance of Boc-FL band),PBPC1; [15],no binding
same,percentage of Boc-FL binding capacity remaining,PBPC1; [16],100%
same,inhibition of Boc-FL binding,PBPB1 (PBP3) [12]; Amp at 100 μg/ml,completely inhibited
same,binding of ampicillin (disappearance of Boc-FL band),PBPB1 (PBP3) [12]; [15],total
same,percentage of Boc-FL binding capacity remaining,PBPB1 (PBP3) [12]; [16],0%
same,MIC,[13],0.16 µg/mL
same,MIC,L. monocytogenes EGD,0.31 µg/mL
same,MIC,[14],0.31 µg/mL
